Reference: ChEMBL document CHEMBL1139373, “Metabolic soft spot identification and compound optimization in early discovery phases using MetaSite and LC-MS/MS validation” (J Med Chem, 2009)

Assay: Metabolic stability in human liver microsomes assessed as intrinsic clearance per mg of protein

CN1CC(=O)N2[C@H](c3ccc4c(c3)OCO4)c3[nH]c4ccccc4c3C[C@@H]2C1=O
microsomal CLint (liver microsomes): 49 µL/min/mg

CC(=O)CC(c1ccc([N+](=O)[O-])cc1)c1c(O)c2ccccc2oc1=O (stereo unspecified) [ACENOCOUMAROL]
microsomal CLint (liver microsomes): 37 µL/min/mg

CC(C)COCC(CN(Cc1ccccc1)c1ccccc1)N1CCCC1 (stereo unspecified) [BEPRIDIL]
microsomal CLint (liver microsomes): 94 µL/min/mg

COc1ccccc1OCCNCC(O)COc1cccc2[nH]c3ccccc3c12 (stereo unspecified) [CARVEDILOL]
microsomal CLint (microsomes): 235 µL/min/mg

CN(C)CCCN1c2ccccc2Sc2ccc(Cl)cc21 [CHLORPROMAZINE]
microsomal CLint (microsomes): 117 µL/min/mg

c1ccc(C2(c3ccccc3)CC2C2=NCCN2)cc1 (stereo unspecified) [CIFENLINE]
microsomal CLint (liver microsomes): 28 µL/min/mg

CN(C)CCCC1(c2ccc(F)cc2)OCc2cc(C#N)ccc21 (stereo unspecified) [CITALOPRAM]
microsomal CLint (liver microsomes): 36 µL/min/mg

O=c1c(O)c(-c2ccc(O)cc2)oc2cc(O)cc(O)c12 [KAEMPFEROL]
microsomal CLint (microsomes): 269 µL/min/mg

CNC1(c2ccccc2Cl)CCCCC1=O (stereo unspecified) [KETAMINE]
microsomal CLint (microsomes): 136 µL/min/mg

CNCCCC12CCC(c3ccccc31)c1ccccc12 [MAPROTILINE]
microsomal CLint (microsomes): 31 µL/min/mg

c1ccc2c(c1)Sc1ccccc1N2CC1CN2CCC1CC2 (stereo unspecified) [MEQUITAZINE]
microsomal CLint (liver microsomes): 34 µL/min/mg

Cc1ncc2n1-c1ccc(Cl)cc1C(c1ccccc1F)=NC2 [MIDAZOLAM]
microsomal CLint (microsomes): 554 µL/min/mg

CN(C)CCOc1ccc(/C(=C(/CCCl)c2ccccc2)c2ccccc2)cc1 [TOREMIFENE]
microsomal CLint (liver microsomes): 31 µL/min/mg

CC(/C=C/C(=O)NO)=C\[C@@H](C)C(=O)c1ccc(N(C)C)cc1 [TRICHOSTATIN]
microsomal CLint (liver microsomes): 107 µL/min/mg

CN1[C@@H]2CC[C@H]1C[C@@H](OC(=O)c1c[nH]c3ccccc13)C2 [TROPISETRON]
microsomal CLint (liver microsomes): 22 µL/min/mg

COc1ccc(C(CN(C)C)C2(O)CCCCC2)cc1 (stereo unspecified) [VENLAFAXINE]
microsomal CLint (liver microsomes): 59 µL/min/mg
